{
  "source": "patent US20110200625A1",
  "about": "“PHARMACEUTICAL COMPOSITION” (priority 2010, published 2011)",
  "test": "presence of drug in the epidermis after the composition is applied to the skin",
  "assay_type": "in vivo",
  "conditions": "after the composition containing the drug has been applied to the skin",
  "from_the_text": "In the present invention, the Hsieh enhancer is used in a different way, that is, as a penetration-facilitator for delivery of drug to the dermal layer of the skin without significant, if any, systemic absorption of the drug into the blood stream of the user.",
  "data": [
    {"smiles": "CO[C@H]1C[C@@H]2CC[C@@H](C)[C@@](O)(O2)C(=O)C(=O)N2CCCC[C@H]2C(=O)O[C@H]([C@H](C)C[C@@H]2CC[C@@H](O)[C@H](OC)C2)CC(=O)[C@H](C)/C=C(\\C)[C@@H](O)[C@@H](OC)C(=O)[C@H](C)C[C@H](C)/C=C/C=C/C=C/1C", "note": "[rapamycin]", "values": [
      {"measurement": "drug observed to be present in the epidermis, time after application", "result": 72, "unit": "h"}
    ]}
  ]
}
